Measurements taken from article doi:10.1101/2025.04.19.649632v1 (biorxiv, 2025).
Like-named read-outs stand apart in the source and are kept apart here.

Columns and labels:
[1] = target: T1, USP32 FL (USP32FL, USP32WT) (Homo sapiens, UniProt Q8NFA0); format: biochemical; conditions: 500 nM UbRhoMP, pH 7.6, 1 mM TCEP, RT; covalent
[2] = target: T1, USP32 FL (USP32FL, USP32WT); assay: biochemical; conditions: read-out: kinact (s^-1)
[3] = target: T1, USP32 FL (USP32FL, USP32WT); conditions: read-out: Ki; covalent
[4] = target: T1, USP32 FL (USP32FL, USP32WT); assay: UbRhoMP fluorescence intensity assay, […] min preincubation; format: biochemical

T1 sequence (Q8NFA0 whole entry): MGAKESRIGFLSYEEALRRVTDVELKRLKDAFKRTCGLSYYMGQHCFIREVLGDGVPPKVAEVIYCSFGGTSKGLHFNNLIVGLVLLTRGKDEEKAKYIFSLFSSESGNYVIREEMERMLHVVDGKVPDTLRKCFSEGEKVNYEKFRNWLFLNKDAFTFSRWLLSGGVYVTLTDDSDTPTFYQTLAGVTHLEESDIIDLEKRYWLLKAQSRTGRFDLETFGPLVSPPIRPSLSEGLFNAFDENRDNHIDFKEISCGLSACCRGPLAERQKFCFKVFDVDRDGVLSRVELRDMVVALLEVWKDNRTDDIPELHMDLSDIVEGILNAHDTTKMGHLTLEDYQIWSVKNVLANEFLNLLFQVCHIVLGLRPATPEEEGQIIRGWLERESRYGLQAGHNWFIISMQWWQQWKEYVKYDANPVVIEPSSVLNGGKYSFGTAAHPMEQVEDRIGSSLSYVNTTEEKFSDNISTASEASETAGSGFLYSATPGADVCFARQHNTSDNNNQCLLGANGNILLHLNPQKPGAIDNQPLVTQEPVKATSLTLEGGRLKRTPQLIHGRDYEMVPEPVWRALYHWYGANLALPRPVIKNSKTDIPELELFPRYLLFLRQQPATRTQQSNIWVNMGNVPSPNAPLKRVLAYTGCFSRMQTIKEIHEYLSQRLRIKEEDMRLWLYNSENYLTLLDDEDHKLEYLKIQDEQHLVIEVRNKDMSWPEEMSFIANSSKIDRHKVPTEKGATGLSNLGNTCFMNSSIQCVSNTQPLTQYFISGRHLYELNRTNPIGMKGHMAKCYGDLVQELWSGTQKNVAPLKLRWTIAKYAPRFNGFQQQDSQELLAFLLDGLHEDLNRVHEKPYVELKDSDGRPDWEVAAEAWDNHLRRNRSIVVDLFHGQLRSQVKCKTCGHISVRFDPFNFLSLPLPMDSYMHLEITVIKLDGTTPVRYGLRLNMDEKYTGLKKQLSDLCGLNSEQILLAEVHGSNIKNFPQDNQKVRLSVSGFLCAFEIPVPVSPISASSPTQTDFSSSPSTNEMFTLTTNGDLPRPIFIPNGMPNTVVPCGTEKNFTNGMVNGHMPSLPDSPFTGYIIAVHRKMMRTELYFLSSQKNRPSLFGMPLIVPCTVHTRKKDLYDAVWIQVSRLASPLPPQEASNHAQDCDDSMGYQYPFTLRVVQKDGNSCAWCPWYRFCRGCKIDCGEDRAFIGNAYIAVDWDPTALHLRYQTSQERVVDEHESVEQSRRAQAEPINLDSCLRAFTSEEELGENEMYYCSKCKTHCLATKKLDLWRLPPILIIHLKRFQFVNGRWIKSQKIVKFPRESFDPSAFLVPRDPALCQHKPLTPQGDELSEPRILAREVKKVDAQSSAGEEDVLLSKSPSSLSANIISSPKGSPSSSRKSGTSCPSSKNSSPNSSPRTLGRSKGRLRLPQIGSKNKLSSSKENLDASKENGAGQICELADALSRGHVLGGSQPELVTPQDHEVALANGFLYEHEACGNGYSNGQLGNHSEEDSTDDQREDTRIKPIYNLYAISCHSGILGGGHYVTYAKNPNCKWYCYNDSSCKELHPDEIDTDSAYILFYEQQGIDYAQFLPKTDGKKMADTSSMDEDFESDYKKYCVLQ

| Compound | kinact/Ki [1] | kinact [2] | KI (inactivation) [3] | IC50 [4] | IC50 ([4]; 500 nM UbRhoMP, pH 7.6, 1 mM TCEP, RT, covalent) |
| --- | --- | --- | --- | --- | --- |
| Cc1noc(C)c1S(=O)(=O)N1CCC(C(=O)N[C@@H]2CCN(C#N)C2)CC1 [BB01CA282, Huib32] | 18,800 s^-1M^-1 | 0.000222 s⁻¹ | 0.0118 µM | – | – |
| Cc1noc(C)c1S(=O)(=O)N1CCC(C(=O)N2CC3CC2CN3C#N)CC1 (centres unmarked) [BB12CA282] | 2,130 s^-1M^-1 | 0.000324 s⁻¹ | 0.152 µM | 0.094 µM | – |
| Cc1noc(C)c1S(=O)(=O)N1CCC(C(=O)N2CCC3(CCN(C#N)C3)C2)CC1 (centres unmarked) [BB14CA282] | 219 s^-1M^-1 | 0.000984 s⁻¹ | 4.49 µM | 0.518 µM | – |

Continued, values first:

| kinact/Ki [1] | kinact [2] | KI (inactivation) [3] | IC50 [4] | IC50 ([4]; 500 nM UbRhoMP, pH 7.6, 1 mM TCEP, RT, covalent) | Compound |
| --- | --- | --- | --- | --- | --- |
| – | – | – | – | 0.412 µM | CCN1/C(=C/C=C/C=C/C2=[N+](CCCCCC(=O)NCCCc3cn(CCOc4ccc(S(=O)(=O)N5CCC(C(=O)N[C@@H]6CCN(C#N)C6)CC5)cc4)nn3)c3ccc(S(=O)(=O)[O-])cc3C2(C)C)C(C)(C)c2cc(S(=O)(=O)O)ccc21 [Huib32*1] |
| – | – | – | 0.266 µM | – | N#CN1CC[C@@H](NC(=O)C2CCN(S(=O)(=O)c3ccc(OCCn4cc(CNC(=O)CCCC[C@@H]5SC[C@@H]6NC(=O)N[C@@H]65)nn4)cc3)CC2)C1 [Huib32*2] |
| – | – | – | 0.67 µM | – | N#CN1CC[C@@H](NC(=O)C2CCN(S(=O)(=O)c3ccc(OCCN=[N+]=[N-])cc3)CC2)C1 [Huib32*] |
